Results from US9884833B2, “Crystalline forms of neurotrophin mimetic compounds and their salts” (Pharmatrophix, Inc., priority 2012, dated 2018).

Experiments:
Type in all cases: physicochemical
[1] = Non-competitive slurry experiments (solid form stability)
Excerpt: In addition to the solvent recrystallization experiments, non-competitive slurry experiments were perfoi ined to search for new solid state forms. These experiments rely on solubility differences of different polymorphic forms (if the compound is polymorphic). […] Essentially, when a solid is mixed with solvent as slurry, a saturated solution eventually results. The solution is saturated with respect to the polymorphic form dissolved.
In addition, noncompetitive slurry experiments are often useful in identifying solvents that form solvates with the compound.
The slurry experiments were performed by exposing excess “starting” material (Form A) to neat (single) and binary solvent mixtures and agitating the resulting suspensions for several days at ambient temperature. The solids were vacuum filtered and analyzed by XRD to determine the resulting form. To avoid possible desolvation or physical change after isolation, the samples were not further dried before X-ray analysis.

[2] = Static vapor sorption studies in humidity chambers; settings: for weight gain by TGA: after 40 days
Excerpt: Static vapor sorption studies were done in hermetic humidity chambers using saturated salts, or environmental humidity chambers to control the temperature and humidity. Data collected during dynamic vapor sorption studies often are not at theiniodynamic equilibrium. To gain a better understanding of the water uptake and the critical humidity level of the API, samples of the starting material (Form A) were monitored in static humidity chambers to allow the sample to equilibrate with aerial moisture.
In these studies, water vapor sorption was determined gravimetrically (or by Thermogravimetric analysis) by storing samples in open aluminum dishes. Samples were stored at 8 different humidities (23, 33, 43, 53, 60, 69, 75 and 84% RH) at ambient temperature. A few hundred milligrams of Form A was staged at each humidity condition.
The samples were examined periodically either by recording the weight change or by monitoring the water content by Karl Fischer or TGA, and/or XRD pattern. […] The samples stored at humidities higher than 60% RH deliquesced after 10 days.

[3] = Hygroscopicity by dynamic vapor sorption (DVS); settings: for water uptake: 0-55% RH; for water uptake (sorption maximum): 95% RH
Procedure: Samples were analyzed using an automated dynamic vapor sorption analyzer. The sample (about 1-10 mg) was dried in the instrument 0% RH for 6 hours. The samples were subjected to 0 to 95% RH back to 5% RH at 25° C. in 5% RH steps.
The water content of the as received material was determined by Karl Fischer to be approximately 0.3 wt %. The moisture sorption-desorption isotherms (FIGS. 3A and 3B) were collected using dynamic vapor sorption (DVS) analysis. […] A hydrate may also form near 60% RH.
FIGS. 3A and 3B show the moisture sorption-desorption isotherm and the kinetic plots for Form A. This sample may undergo hydrate formation ≧60% RH, although the shape of the isotherm is less than ideal.
To understand this further a fresh sample of starting material was staged at 60% RH in DVS for about 3 hours allowing sample to gain about 4 wt %. […] FIG. 21.

[4] = Visual solubility measurement in various solvents
Procedure: About 100 mg of disulfate starting material was placed into each of 26 vials. Solvents were added and the vials were stirred for 30 minutes, followed by visual observation for remaining solids. Additional solvent was incrementally added until the solids were dissolved, or a maximum volume of solvent was added and the experiment was terminated. This solubility data was used in designing experiments, selecting the solvents, anti-solvents for crystallization and slurry experiments, sample consumption, etc.

[5] = stored at 60% RH, then dried at ~45° C. under vacuum for about 15 days
[6] = DVS sorption, 25° C., listed as 2-amino-3-methyl-N-(2-morpholinoethyl)-pentanamide disulfate

2-amino-3-methyl-N-(2-morpholinoethyl)-pentanamide disulfate [Form A]
Final Form ([1]; slurry in DMA, 27 days, ambient temperature, by XRD): monosulfate | Final Form ([1]; slurry in DMF/2-propanol (1/1), 19 days): monosulfate | Final Form ([1]; slurry in DMF/2-propanol (1/2), 19 days): monosulfate | Final Form ([1]; slurry in DMF/2-propanol (2/1), 19 days): monosulfate | Final Form ([1]; slurry in DMF/acetone (1/1), 19 days): monosulfate | Final Form ([1]; slurry in DMF/acetone (1/2), 19 days): monosulfate | Final Form ([1]; slurry in DMF/acetone (2/1), 19 days): monosulfate | Final Form ([1]; slurry in DMF/heptane (1/1), 19 days): monosulfate | Final Form ([1]; slurry in DMF/heptane (1/2), 19 days): monosulfate | Final Form ([1]; slurry in DMF/heptane (2/1), 19 days): monosulfate | Final Form ([1]; slurry in water, duration n/a): all dissolved | weight gain by TGA ([2]; stored at 43% RH): approximately 1.0 wt % | weight gain by TGA ([2]; stored at 53% RH): ~1.3 wt % | state after storage ([2]; stored at 60% RH, after 27 days): mostly deliquesced | weight gain ([2]; stored at 60% RH, in 20 days): approximately 6 wt % | XRD after storage and drying [2, 5]: identical to starting material | weight by TGA after drying [2, 5]: approximately 3.3 wt % | state after storage ([2]; stored at humidities higher than 60% RH, ambient temperature, after 10 days): deliquesced | weight gain ([2]; stored at humidities lower than 43% RH, ambient temperature, after 15 days): minimaUno weight gain | water remaining in desorption phase ([3]; DVS desorption, 65% RH, 25° C.): ~23 wt % | mass above original value at end of desorption cycle ([3]; DVS desorption): ~4 wt % | mass above original value at end of desorption cycle ([3]; DVS desorption, listed as 2-amino-3-methyl-N-(2-morpholinoethyl)-pentanamide disulfate): about 4 wt % | water uptake ([3]; DVS sorption, 25° C.): 2 wt % | water uptake [3, 6]: did not sorb much water | water uptake (total) ([3]; DVS sorption, 65% RH, 25° C.): ~23 wt % | water uptake (sorption maximum) ([3]; DVS sorption, 25° C.): approximately 225 wt % | water uptake (sorption maximum) [3, 6]: up to 225 wt % | behaviour at high humidity ([3]; DVS, high humidity, followed by glass formation upon evaporation): Apparent deliquescence | weight gain ([3]; fresh sample staged at 60% RH in DVS for about 3 hours): about 4 wt % | relative humidity at which hydrate forms ([3]; from DVS isotherm, 25° C.): ~60 % RH | Approx. Solubility ([4]; 1-butanol): ≦1.67 mg/mL | Approx. Solubility ([4]; 1-propanol): ≦1.67 mg/mL | Approx. Solubility ([4]; 2-butanol): ≦1.67 mg/mL | Approx. Solubility ([4]; 2-propanol): ≦1.67 mg/mL | Approx. Solubility ([4]; acetone): ≦1.67 mg/mL | Approx. Solubility ([4]; acetonitrile): ≦1.67 mg/mL | Approx. Solubility ([4]; butylamine): ≦1.67 mg/mL | Approx. Solubility ([4]; chloroform): ≦1.67 mg/mL | Approx. Solubility ([4]; dichloromethane): ≦1.67 mg/mL | Approx. Solubility ([4]; diisopropylamine): ≦1.67 mg/mL | Approx. Solubility ([4]; dimethylacetamide (DMA)): ≦1.67 mg/mL | Approx. Solubility ([4]; dimethylformamide (DMF)): ~1670 µg/mL | Approx. Solubility ([4]; ethanol): ≧50 mg/mL | Approx. Solubility ([4]; ethyl acetate (EtOAc)): ≦1.67 mg/mL | Approx. Solubility ([4]; heptane): ≦1.67 mg/mL | Approx. Solubility ([4]; isopropyl acetate): ≦1.67 mg/mL | Approx. Solubility ([4]; isopropyl ether): ≦1.67 mg/mL | Approx. Solubility ([4]; methanol, stirred 30 minutes): ≧100 mg/mL | Approx. Solubility ([4]; methyl ethyl ketone (MEK)): ≦1.67 mg/mL | Approx. Solubility ([4]; methyl-t-butyl ether (MTBE)): ≦1.67 mg/mL | Approx. Solubility ([4]; nitromethane): ≦1.67 mg/mL | Approx. Solubility ([4]; pyridine): ≦1.67 mg/mL | Approx. Solubility ([4]; tetrahydrofuran (THF)): ≦1.67 mg/mL | Approx. Solubility ([4]; toluene): ≦1.67 mg/mL | Approx. Solubility ([4]; trifluoroethanol): ≧50 mg/mL | Approx. Solubility ([4]; water): ≧100 mg/mL
